Reference: PubChem BioAssay AID330 (DTP/NCI, 2004)
Several values for one entry are separate records, joined by “and”; a condition that tells them apart may be missing. Identical values can stand only once. Inconclusive results and toxic doses are left out.

System: P388 leukemia ip, CD2F1 mice, survival T/C
Assay: NCI In Vivo Anticancer Drug Screen. Data for tumor model P388 Leukemia (intraperitoneal) in CD2F1 (CDF1) mice
Details: endpoint: median survival time, higher = longer survival
Method in brief: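 Mice carrying the transplanted tumor received test compound or vehicle. Survival was recorded in each group, and the value is the treated-group measurement divided by that of the vehicle-treated control group.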

[1] = dose: 12.5 mg/kg/injection, schedule: Q01DX009 (ip), vehicle: saline with Tween-80
[2] = dose: 25.0 mg/kg/injection, schedule: Q01DX009 (ip), vehicle: saline with Tween-80
[3] = dose: 50.0 mg/kg/injection, schedule: Q01DX009 (ip), vehicle: saline with Tween-80
[4] = dose: 100.0 mg/kg/injection, schedule: Q01DX009 (ip), vehicle: saline with Tween-80
[5] = dose: 200.0 mg/kg/injection, schedule: Q01DX009 (ip), vehicle: saline with Tween-80
[6] = dose: 60.0 mg/kg/injection, schedule: Q01DX005 (ip), vehicle: saline with Tween-80
[7] = dose: 120.0 mg/kg/injection, schedule: Q01DX005 (ip), vehicle: saline with Tween-80
[8] = dose: 240.0 mg/kg/injection, schedule: Q01DX005 (ip), vehicle: saline with Tween-80
[9] = dose: 50.0 mg/kg/injection, schedule: Q01DX005 (ip), vehicle: Klucel (hydroxypropylcellulose) (HPC)
[10] = dose: 100.0 mg/kg/injection, schedule: Q01DX005 (ip), vehicle: Klucel (hydroxypropylcellulose) (HPC)
[11] = dose: 50.0 mg/kg/injection, schedule: Q01DX009 (ip), vehicle: Klucel (hydroxypropylcellulose) (HPC)
[12] = dose: 100.0 mg/kg/injection, schedule: Q01DX009 (ip), vehicle: Klucel (hydroxypropylcellulose) (HPC)
[13] = dose: 200.0 mg/kg/injection, schedule: Q01DX009 (ip), vehicle: Klucel (hydroxypropylcellulose) (HPC)

COc1ccc(S(=O)(=O)N(C)/N=C/C(=O)O)cc1
T/C (dose: 12.5 mg/kg/injection, schedule: Q01DX005 (ip), vehicle: distilled water + Tween-80): 100 % of control | T/C (dose: 25.0 mg/kg/injection, schedule: Q01DX005 (ip), vehicle: distilled water + Tween-80): 106 % of control | T/C (dose: 50.0 mg/kg/injection, schedule: Q01DX005 (ip), vehicle: distilled water + Tween-80): 106 % of control | T/C (dose: 100.0 mg/kg/injection, schedule: Q01DX005 (ip), vehicle: distilled water + Tween-80): 95 % of control | T/C (dose: 200.0 mg/kg/injection, schedule: Q01DX005 (ip), vehicle: distilled water + Tween-80): 97 % of control | T/C (dose: 200.0 mg/kg/injection, schedule: Q01DX005 (ip), vehicle: water): 106 % of control | T/C (dose: 400.0 mg/kg/injection, schedule: Q01DX005 (ip), vehicle: water): 102 % of control

COc1ccc(OC)c(C2N(Cc3ccccc3N(C)C)CCCN2Cc2ccccc2N(C)C)c1
T/C (dose: 50.0 mg/kg/injection, schedule: Q04DX003 (ip), vehicle: saline with Tween-80): 91 % of control | T/C (dose: 100.0 mg/kg/injection, schedule: Q04DX003 (ip), vehicle: saline with Tween-80): 87 % of control

c1cncc(-c2n[nH]c3c2CCc2ccccc2-3)c1
T/C (dose: 12.5 mg/kg/injection, schedule: Q01DX009 (ip), vehicle: other): 121 % of control | T/C (dose: 37.5 mg/kg/injection, schedule: Q01DX009 (ip), vehicle: other): 86 % of control | T/C (dose: 50.0 mg/kg/injection, schedule: Q01DX009 (ip), vehicle: other): 121 % of control | T/C (dose: 75.0 mg/kg/injection, schedule: Q01DX009 (ip), vehicle: other): 113 % of control | T/C (dose: 100.0 mg/kg/injection, schedule: Q01DX009 (ip), vehicle: other): 111 % of control | T/C (dose: 150.0 mg/kg/injection, schedule: Q01DX009 (ip), vehicle: other): 100 % of control | T/C (dose: 200.0 mg/kg/injection, schedule: Q01DX009 (ip), vehicle: other): 101 % of control | T/C (dose: 300.0 mg/kg/injection, schedule: Q01DX009 (ip), vehicle: other): 104 % of control

CC1(C)N=C(N)N=C(N)N1c1ccc(OCCNC(=O)Nc2ccc(S(=O)(=O)F)cc2)c(Cl)c1
T/C (dose: 50.0 mg/kg/injection, schedule: Q04DX003 (ip), vehicle: saline): 120 % of control

CNC(=O)OCCN(CCOC(=O)NC)C(=O)N1c2ccccc2Sc2ccccc21
T/C [1]: 94 % of control | T/C [2]: 98 % of control | T/C [3]: 91 % of control | T/C [4]: 100 % of control | T/C [5]: 100 % of control

N#CC1=C(Nc2ccccc2)SC(c2cccs2)NC1=O (stereo not drawn)
T/C (dose: 60.0 mg/kg/injection, schedule: Q01DX005 (ip), vehicle: Klucel (hydroxypropylcellulose) (HPC)): 108 % of control | T/C (dose: 120.0 mg/kg/injection, schedule: Q01DX005 (ip), vehicle: Klucel (hydroxypropylcellulose) (HPC)): 108 % of control

Cc1ccc(N2C(=S)N(c3cccc(Cl)c3Cl)C(=O)C(N=Nc3cccc(Cl)c3Cl)C2O)cc1 (stereo not drawn)
T/C (dose: 100.0 mg/kg/injection, schedule: Q01DX001 (ip), vehicle: Klucel (hydroxypropylcellulose) (HPC)): 97 % of control | T/C (dose: 200.0 mg/kg/injection, schedule: Q01DX001 (ip), vehicle: Klucel (hydroxypropylcellulose) (HPC)): 98 % of control | T/C (dose: 400.0 mg/kg/injection, schedule: Q01DX001 (ip), vehicle: Klucel (hydroxypropylcellulose) (HPC)): 97 % of control

Cc1ccc(N2CC(O)CN(c3ccc(C)cc3)CC(O)C2)cc1 (stereo not drawn)
T/C [6]: 97 % of control | T/C [7]: 97 % of control | T/C [8]: 94 % of control

N#Cc1cccc[n+]1Cc1ccc([N+](=O)[O-])cc1
T/C [1]: 95 % of control | T/C [2]: 109 % of control | T/C [3]: 118 % of control

Nc1nc(=O)n(C2CCCCO2)cc1Br (stereo not drawn)
T/C [9]: 104 % of control | T/C [10]: 109 % of control | T/C (dose: 200.0 mg/kg/injection, schedule: Q01DX005 (ip), vehicle: Klucel (hydroxypropylcellulose) (HPC)): 97 % of control

CCCCN(CCCC)C(Cl)=Nc1ccccc1
T/C (dose: 25.0 mg/kg/injection, schedule: Q01DX009 (ip), vehicle: Klucel (hydroxypropylcellulose) (HPC)): 119 % of control | T/C [11]: 120 % of control | T/C [12]: 112 % of control

CN1c2cccc[c]2[Sn]([CH3])([CH3])[c]2ccccc21
T/C (dose: 30.0 mg/kg/injection, schedule: Q01DX005 (ip), vehicle: saline with Tween-80): 115 % of control | T/C [6]: 113 % of control and 123 % of control | T/C [7]: 124 % of control

CC[As](CC)SC1CCC2(C)C(=CCC3C4CCC(=O)C4(C)CCC32)C1 (stereo not drawn)
T/C (dose: 12.5 mg/kg/injection, schedule: Q01DX009 (ip), vehicle: distilled water + Tween-80): 105 % of control | T/C (dose: 25.0 mg/kg/injection, schedule: Q01DX009 (ip), vehicle: distilled water + Tween-80): 100 % of control and 117 % of control | T/C (dose: 50.0 mg/kg/injection, schedule: Q01DX009 (ip), vehicle: distilled water + Tween-80): 120 % of control | T/C (dose: 100.0 mg/kg/injection, schedule: Q01DX009 (ip), vehicle: distilled water + Tween-80): 156 % of control

Cc1cc(C)c(S(=O)(=O)NN)c(C)c1
T/C [2]: 104 % of control | T/C [3]: 104 % of control | T/C [4]: 100 % of control | T/C [5]: 95 % of control

N#CC(Cc1ccccc1)(c1ccccc1)c1ccccc1
T/C [11]: 101 % of control | T/C [12]: 96 % of control | T/C [13]: 93 % of control | T/C (dose: 400.0 mg/kg/injection, schedule: Q01DX009 (ip), vehicle: Klucel (hydroxypropylcellulose) (HPC)): 93 % of control

CC1CCC(C(=O)C(Cl)Cc2ccccc2)CC1 (stereo not drawn)
T/C [9]: 88 % of control | T/C [10]: 92 % of control

CCOC(=O)C(=CNc1cc(C)ccn1)C(=O)OCC
T/C [3]: 104 % of control | T/C [4]: 95 % of control | T/C (dose: 100.0 mg/kg/injection, schedule: Q04DX003 (ip), vehicle: saline): 95 % of control | T/C [5]: 100 % of control | T/C (dose: 200.0 mg/kg/injection, schedule: Q04DX003 (ip), vehicle: saline): 100 % of control

CCCCc1c(OS(=O)(=O)c2ccc(C)cc2)c(C#N)c2[nH]c3ccccc3n2c1=O
T/C [6]: 91 % of control | T/C [7]: 96 % of control | T/C [8]: 89 % of control

COC(=O)C(COS(=O)(=O)c1ccc(C)cc1)NC(=O)OCc1ccc(OC)cc1 (stereo not drawn)
T/C (dose: 12.5 mg/kg/injection, schedule: Q01DX009 (ip), vehicle: water): 98 % of control | T/C (dose: 25.0 mg/kg/injection, schedule: Q01DX009 (ip), vehicle: water): 95 % of control | T/C (dose: 50.0 mg/kg/injection, schedule: Q01DX009 (ip), vehicle: water): 89 % of control | T/C (dose: 100.0 mg/kg/injection, schedule: Q01DX009 (ip), vehicle: water): 91 % of control | T/C (dose: 200.0 mg/kg/injection, schedule: Q01DX009 (ip), vehicle: water): 91 % of control

Cc1c[n+]2ccc3ccccc3c2c2ccccc12
T/C (dose: 2.2 mg/kg/injection, schedule: Q01DX009 (ip), vehicle: Klucel (hydroxypropylcellulose) (HPC)): 119 % of control | T/C (dose: 2.5 mg/kg/injection, schedule: Q01DX009 (ip), vehicle: Klucel (hydroxypropylcellulose) (HPC)): 116 % of control | T/C (dose: 3.3 mg/kg/injection, schedule: Q01DX009 (ip), vehicle: Klucel (hydroxypropylcellulose) (HPC)): 120 % of control | T/C (dose: 5.0 mg/kg/injection, schedule: Q01DX009 (ip), vehicle: Klucel (hydroxypropylcellulose) (HPC)): 122 % of control

CSC(C(OC(C)=O)C(OC(C)=O)C(OC(C)=O)C(COC(C)=O)OC(C)=O)n1cnc2c(=S)nc[nH]c21 (stereo not drawn)
T/C (dose: 50.0 mg/kg/injection, schedule: Q01DX005 (ip), vehicle: saline with Tween-80): 101 % of control | T/C (dose: 100.0 mg/kg/injection, schedule: Q01DX005 (ip), vehicle: saline with Tween-80): 92 % of control | T/C (dose: 200.0 mg/kg/injection, schedule: Q01DX005 (ip), vehicle: saline with Tween-80): 89 % of control

CN(C)c1ncnc2c1ncn2[C@H]1CCC[C@@H]1O
T/C (dose: 0.37 mg/kg/injection, schedule: Q01DX005 (ip), vehicle: Klucel (hydroxypropylcellulose) (HPC)): 109 % of control | T/C (dose: 0.75 mg/kg/injection, schedule: Q01DX005 (ip), vehicle: Klucel (hydroxypropylcellulose) (HPC)): 110 % of control | T/C (dose: 1.5 mg/kg/injection, schedule: Q01DX005 (ip), vehicle: Klucel (hydroxypropylcellulose) (HPC)): 112 % of control and 116 % of control

Cc1[nH]c2ccc(N(C)C)cc2c(=O)c1CN1CCOCC1
T/C [11]: 107 % of control | T/C [12]: 115 % of control | T/C [13]: 107 % of control
